# Reference: patent US10231952B2, “Use of arginine vasopressin receptor antagonists for the treatment of prostate cancer” (UNIVERSITY OF MIAMI, priority 2014, dated 2019)
# Entries after “also recorded” stand apart in the source; their conditions may differ.
# Key:
# [1] = system: ERK1/2 phosphorylation; experiment: Phospho-ERK1/2 immunoblot, AVP plus/minus Relcovaptan (FIG. 10); assay type: cell-based, human; conditions: 22Rv1 or CWR-R1, 25 min
# Source text: FIG. 10. […] Lysates were immunoblotted for phospho-ERK1/2 and total ERK1/2.
# [2] = system: 22Rv1, CWR-R1, PC3 cells; experiment: AVP stimulation of castration resistant prostate cancer cell proliferation (FIG. 9); assay type: cell-based, human; conditions: 1 nM AVP; six days
# Description: (§1) FIG. 9A-9D. […] (A) 22Rv1, (B) CWR-R1, (C) PC3, or (D) RWPE-1 cells were plated at 10,000 cells/well in 24 well dishes and then treated with vehicle or arginine vasopressin (AVP) at the indicated concentrations the following day. Media were changed every day. Cells were harvested six days post treatment. Data represent four experiments performed in triplicate and are plotted as fold (treatment/vehicle)±SEM. Significance was determined using a Student's t-test comparing to vehicle controls (**, p<0.01).
# [3] = system: ERK phosphorylation; experiment: Total and phosphoERK after AVP stimulation of 22Rv1 with AVPR1a antagonist pretreatment (FIG. 18); assay type: cell-based, human; conditions: 10 nM AVP; for block of AVP-stimulated phosphoERK: antagonist pretreatment
# Description: Total and phosphoERK levels were assessed following stimulation of 22Rv1 with 10 nM AVP for 25 minutes and pretreatment with AVPR1a antagonist (or vehicle control).
# [4] = system: RWPE1 cells; experiment: AVP effect on normal prostate epithelial cell proliferation; assay type: cell-based, human
# Description: as §1
# (§2) The effect of arginine vasopressin on the proliferation of a castration-resistant prostate cancer cell line (i.e., 22Rv1) was evaluated. Briefly, 22RV1 cells were treated with 1 nM, 10 nM or 1 μM arginine vasopressin (AVP) for six days followed by live cell counting.
# [5] = system: 22Rv1 cells; experiment: AVP treatment of 22Rv1 cells, live cell counting (Example 9); assay type: cell-based, human; conditions: 1 nM, 10 nM or 1 μM AVP, six days
# Description: as §2
# [6] = system: AVP type V1a and V2 receptors; conditions: cited from earlier work
# [7] = system: LNCaP cells; experiment: Relcovaptan treatment of androgen dependent LNCaP cells (data not shown); assay type: cell-based, human
# [8] = system: cleaved PARP; experiment: Immunoblot for cleaved PARP after Relcovaptan treatment; assay type: cell-based, human
# Description: (§3) FIGS. 7A-7I. Pharmacologic blockade of AVPR1a decreases human prostate cancer cell but not normal prostate epithelial cell proliferation and selectively kills human prostate cancer cells. (A) 22Rv1, (B) CWR-R1, (C) PC3, and (D) RWPE-1 cells were treated with vehicle or SR49059 at the indicated concentrations and harvested five days post treatment. A representative experiment (of four) was performed in triplicate and data are plotted as cell number (thousands)±SD. Significance was determined using a Student's t-test comparing to vehicle controls (**, p<0.01; ***, p<0.001). (E) 22Rv1, (F) CWR-R1, (G) PC3 or (H) RWPE-1 cells were plated and grown as described above. Adherent and floating cells were harvested and cells that stained with trypan blue or that excluded stain were counted. A representative experiment (of four) was performed in triplicate. Significance was determined using a Student's t-test comparing to vehicle controls (**, p<0.01; ***, p<0.001). (I) Lysates from cells in (A)-(D) were immunoblotted with antibodies that recognize cleaved PARP and actin.
# [9] = system: 22Rv1, VCaP and RWPE1 cells; experiment: Relcovaptan on prostate cancer cell growth / anchorage independent growth (Example 10); assay type: cell-based, human
# Description: The effect of an AVPR1a antagonist on the anchorage independent growth of a castration-resistant prostate cancer cell line (i.e., 22Rv1) was evaluated.
# [10] = system: 22Rv1 cells; experiment: SR49059 treatment, cell number and trypan blue cell death, 22Rv1; assay type: cell-based, human; conditions: low nanomolar concentrations, five days
# Description: as §3
# [11] = system: VCaP xenografts; experiment: Castration resistant VCaP xenografts in SCID mice, oral Relcovaptan; assay type: in vivo; conditions: 50 mg/kg daily oral gavage, 14 days
# Description: Subcutaneous VCaP xenografts (bilateral) were established in SCID mice. Mice were castrated when tumors reached 250-300 mm^3. […] Circulating prostate specific antigen (PSA) was measured by ELISA in mice prior to tumor xenografting (baseline), at the time of castration (pre-treatment) and at the time of sacrifice (post-treatment).
# [12] = system: 22Rv1 xenografts; experiment: Pilot 22Rv1 xenograft in castrated nude mice, Relcovaptan IP; assay type: in vivo; conditions: 2.5 mg/kg IP, 5 times per week
# Description: FIG. 8. […] 22RV1 cells (2×106) resuspended in BD Matrigel were injected into both hind flanks of castrated nude mice (n=8). […] Top graph, once palpable, tumor size was measured five days per week. Significance was determined using a Student's t-test comparing to vehicle controls (* p<0.05). Lower graph, mice were weighed five days per week.
# [13] = system: RWPE1 cells; experiment: SR49059 treatment, cell number and trypan blue cell death, RWPE-1 normal prostate epithelial cells; assay type: cell-based, human
# Description: as §3
# [14] = system: PC3 cells; experiment: SR49059 treatment, cell number and trypan blue cell death, PC3; assay type: cell-based, human; conditions: low nanomolar concentrations, five days
# Description: as §3
# [15] = system: CWR-R1 cells; experiment: SR49059 treatment, cell number and trypan blue cell death, CWR-R1; assay type: cell-based, human; conditions: low nanomolar concentrations, five days
# Description: as §3
# [16] = system: 22Rv1, CWR-R1 or PC3 cells; experiment: Soft agar anchorage independent growth after AVPR1a depletion; assay type: cell-based, human
# Description: FIG. 6. AVPR1a is necessary for anchorage independent growth of human prostate cancer cells. The growth in soft agar of 22Rv1, CWR-R1 or PC3 cells stably expressing the indicated shRNA vectors was assessed. Average colony number per plate±SEM is plotted. Data represent two independent experiments performed in triplicate. Significance was determined using a Student's t-test comparing to shGFP controls (***, p<0.001).
# (§4) This finding is significant as AR splice variants are a proposed mechanism of resistance to drugs that target full length AR including the newer agents, abiraterone and enzalutamide (6,7). Thus, targeting AVPR1a may be a strategy to overcome therapeutic resistance to these next generation drugs.
# Next, PC3 and 22RV1 cells (CRPC cell lines) in which AVPR1a was depleted (or control shGFP) were cultured in soft agar for three weeks to assess anchorage independent growth (anoikis resistance).
# [17] = system: CWR-R1 cells; experiment: shAVPR1a depletion, growth curves and trypan blue cell death, CWR-R1; assay type: cell-based, human; conditions: CWR-R1 stably expressing shAVPR1a vs shGFP
# Source text: (§5) FIGS. 3A-3D. Depletion of AVPR1a decreases aggressive prostate cancer cell proliferation. […] Live cells (trypan blue exclusion) were counted at the indicated times (hr). Significant differences (p<0.05) in proliferation between shGFP and shAVPR1a-transduced cells occurred by 48-72 hr in CRPC (A-C) but not in normal prostate epithelial cells, RWPE-1 (D). Lower panels quantify AVPR1a mRNA depletion by shRNA in each cell line.
# (§6) FIGS. 4A-4E. Depletion of AVPR1a promotes death of aggressive prostate cancer cells. (A) 22Rv1, (B) CWR-R1, (C) PC3 or (D) RWPE-1 cells stably expressing either plk0.1-shGFP or -shAVPR1a were plated and grown as in FIG. 3. Adherent and floating cells were harvested and cells that stained with trypan blue or that excluded stain were counted. Data represent three independent experiments performed in triplicate. Significance was determined using a Student's t-test comparing to shGFP controls (***, p<0.001). (E) Cell lysates were immunoblotted with antibodies that recognize cleaved PARP, cyclin A, and actin.
# [18] = system: RWPE1 cells; experiment: shAVPR1a depletion, growth curves and trypan blue cell death, RWPE1; assay type: cell-based, human; conditions: RWPE1 stably expressing shAVPR1a vs shGFP
# Source text: as §5, §6
# [19] = system: androgen dependent cells, LNCaP, VCaP and non-tumorigenic prostate epithelial RWPE1 cells; experiment: shAVPR1a depletion, live cell counting, androgen dependent and normal cells (Example 8); assay type: cell-based, human
# Source text: (§7) (● shGFP served as a control, SEQ ID NO: 5-[…] A summary of the human prostate cell lines used is provided below in Table 1:
# (§8) Data represent three independent experiments performed in triplicate for all cell lines except C4-2, which was done one time in triplicate. […] A second distinct AVPR1a shRNA produced similar results (data not shown).
# [20] = system: full length AR and AR splice variants; experiment: Immunoblot of AR after AVPR1a depletion in 22Rv1; assay type: cell-based, human
# Source text: FIG. 5. AVPR1a knock down results in down-regulation of androgen receptor (AR) and AR splice variant expression in human prostate cancer cells. […] ARdeltaLBD refers to C-terminally truncated AR splice variants such as AR3.
# as §4
# [21] = system: 22Rv1 cells; experiment: shAVPR1a depletion, growth curves and trypan blue cell death, 22Rv1; assay type: cell-based, human; conditions: 22Rv1 stably expressing shAVPR1a vs shGFP
# Source text: as §5, §6
# [22] = system: CRPC cells (PC3, 22RV1, LNCaP-abl, C4-2, CWR-R1); experiment: shAVPR1a depletion, live cell counting, CRPC cells (Example 8); assay type: cell-based, human
# Source text: as §7, §8
# [23] = system: PC3 cells; experiment: shAVPR1a depletion, growth curves and trypan blue cell death, PC3; assay type: cell-based, human; conditions: PC3 stably expressing shAVPR1a vs shGFP
# Source text: as §5, §6
# [24] = system: cleaved PARP, Cyclin A, p-RB; experiment: Immunoblot of apoptosis and G1/S cell-cycle markers after AVPR1a depletion; assay type: cell-based, human
# Description: as §6, §4
# Next, Western-blot analysis was performed in PC3, 22Rv1 and LNCaP Abl (CRPC) and RWPE1 (non-tumorigenic prostate epithelial cells) to examine G1/S cell-cycle markers: Cyclin A, p-RB or P27.
compound,measurement,setting,value
"NC(=O)CC[C@@H]1NC(=O)[C@H](Cc2ccccc2)NC(=O)[C@H](Cc2ccc(O)cc2)NC(=O)[C@@H](N)CSSC[C@@H](C(=O)N2CCC[C@H]2C(=O)N[C@@H](CCCN=C(N)N)C(=O)NCC(N)=O)NC(=O)[C@H](CC(N)=O)NC1=O [AVP, arginine vasopressin]",ERK 1/2 phosphorylation (activation),[1]; 1 nM AVP,activated ERK 1/2; also recorded: stimulates ERK1/2 phosphorylation
same,PC cell proliferation,[2],increased PC cell proliferation; also recorded: stimulates castration resistant prostate cancer cell proliferation
same,phosphoERK levels,[3]; 25 minutes,increased phosphoERK levels
same,growth of normal RWPE1 cells,"[4]; 1 nM AVP, six days",did not stimulate growth
same,RWPE1 cell proliferation,"[4]; Example 9, data not shown",did not stimulate RWPE1 cell proliferation
same,proliferation of RWPE-1,[4]; higher AVP doses,Decreased proliferation
same,CRPC proliferation,[5],stimulated CRPC proliferation
Cc1nc2c([nH]1)-c1ccccc1N(C(=O)c1ccc(NC(=O)c3ccccc3-c3ccccc3)cc1)CC2 [Conivaptan],AVP receptor blockade / selectivity,[6],non-selectively blocks both AVP type V1a and V2 receptors
COc1ccc(S(=O)(=O)N2c3ccc(Cl)cc3[C@](O)(c3ccccc3Cl)[C@@H]2C(=O)N2CCC[C@H]2C(N)=O)cc1OC [Relcovaptan],inhibition of AVP-stimulated ERK phosphorylation,[1]; 1 nM AVP plus 1 nM Relcovaptan,inhibited this phosphorylation of ERK
same,cell death,[7],approx. 20%
same,growth,[7],inhibited growth inhibition
same,cleavage of PARP,[8]; PC cells,cleavage of PARP
same,cleavage of PARP,[8]; normal prostate cells,not normal prostate cells
same,anchorage independent growth,"[9]; 10 μM or 25 μM, six days, FIG. 17",inhibits prostate cancer cell anchorage independent growth
same,prostate cancer cell proliferation,[9]; FIG. 16,inhibits prostate cancer cell proliferation
same,cell death,[10],promoted CRPC cell death
same,proliferation,[10],inhibited proliferation
same,body weight vs controls,[11],no loss of weight
same,growth of castration resistant VCaP xenografts,[11]; started seven days after castration,significantly slowed the growth; also recorded: slows growth of VCaP tumors
same,circulating PSA levels,[11]; ELISA,stabilization of PSA levels
same,adverse effects / toxicity,[12],no adverse effects; also recorded: lack of toxicity
same,tumor growth,[12]; castrated nude mice,significantly decreased tumor growth at early time points; also recorded: decreases CRPC in vivo growth at early time points
same,block of AVP-stimulated phosphoERK,[3],blocks ERK signaling
same,block of AVP-stimulated phosphoERK,[3]; listed as relcovaptan,blocked
same,cell proliferation,[13]; 1-10 nM,no effect
same,cell survival,[13]; 1-10 nM,no effect
same,cell death,"[13]; doses as high as 10 μM, data not shown",did not promote RWPE1 cell death
same,cell death,[14],promotes cell death; also recorded: promoted CRPC cell death
same,proliferation,[14],inhibited proliferation
same,cell death,[15],promoted CRPC cell death
same,proliferation,[15],inhibited proliferation
"shAVPR1a: selective shRNA to AVPR1a, SEQ ID NO: 2 (hairpin printed as SEQ ID NO: 4 in b155) (GGTATGTGGAAGGACTCGCCTAAATCTTC)",anchorage independent growth,"[16]; PC3 and 22RV1, soft agar, three weeks, Example 8",significantly reduced anchorage independent growth
same,anchorage independent growth in soft agar,"[16]; three PC cell lines (22Rv1, CWR-R1, PC3)",inhibition of anchorage independent growth in soft agar
same,cell death,[17],increased cell death
same,cell proliferation,[17],decreased cell proliferation
same,cell death,[18],not the normal human prostate epithelial RWPE1 cells
same,androgen dependent and normal prostate epithelial cell proliferation,[19],less effect
same,levels of full length AR and AR splice variants,[20],decreased levels of full length AR and AR splice variants
same,cell death,[21],increased cell death
same,cell proliferation,[21],decreased cell proliferation
same,proliferation of CRPC cells,[22],greatly decreased proliferation
same,cell death,[23],increased cell death
same,cell proliferation,[23],decreased cell proliferation
same,PARP cleavage,[24]; AVPR1a-depleted PC cells,observed
same,cyclin A,"[24]; CRPC lines PC3, 22Rv1, LNCaP Abl, Example 8",decreased cyclin A
same,phosphorylation of the retinoblastoma protein,"[24]; PC3 and 22Rv1, Example 8",decreased phosphorylation of the retinoblastoma protein
same,Cyclin A levels (G1 to S progression),"[24]; PC cells, Example 1",decreased levels of Cyclin A
same,phosphorylation of the retinoblastoma protein,"[24]; RWPE1, Example 8",not RWPE1 cells
same,PARP cleavage,[24]; RWPE1 cells,not in RWPE1 cells
